From EP0235773A1, “Improved pesticide formulations” (Shell Agrar GmbH & Co. KG, priority 1986, dated 1987)
Structures can show the parent of a compound that is named as a salt.

Legend:
[1] = cited from earlier work
[2] = Approximate solubility of solutes in butyrolactone (BLO); assay type: physicochemical; settings: solvent BLO; approximately 25-30°C
Procedure: In formulating the solutions of chlorflurenol and solvent, it was necessary to agitate the solution in order to dissolve the chlorflurenol in the BLO, M-Pyrol, or BLO/M-PYROL.
From tests conducted, the following approximate solubilities at temperatures of approximately 25-30°C. were determined.
Technical dicamba acid - 86.9% acid equivalent Technical sodium salt of dicamba acid - 76% acid equivalent Technical chlorflurenol methyl ester - 95-98% total methal esters

Compound | water solubility [1] [grams/100 grams water] | Solubility for acid Equivalent Concentration [2]
COC(=O)C1(O)c2ccccc2-c2ccc(Cl)cc21 (stereo not drawn) [Technical chlorflurenol methy ester, chlorflurenol methyl ester] | 0.0018 | approximately 25%
COc1c(Cl)ccc(Cl)c1C(=O)O [Technical sodium salt of dicamba] | – | Less than 1%
